Results as given in US11253497B2, “Use of derivatives of polyunsaturated fatty acids as medicaments” (Lipopharma Therapeutics, S.L., priority 2009, dated 2022).

Key:
B6 healthy mice = assay: Radial maze in control animals (B6 healthy mice); format: in vivo; conditions: 20 mg/kg daily po, 3 months
Protocol: To test the efficacy of the compounds of the present invention to induce neuroregeneration or inhibit neurodegeneration, an animal model of Alzheimer's disease was used. In this model mice develop neurodegeneration because they express a series of mutant proteins that lead to brain damage (Alzh mice). B6 mice were used as healthy animal controls. Both groups of animals were treated for a period of 3 months with vehicle (water) or with various D-PUFA (20 mg/kg, daily po) since they were an age of 3 months. To determine whether cognitive improvement occurred after treatment, animal behaviour was monitored in the radial maze. The animals are kept on restricted diet to have appetite. In a symmetrical 8-arm radial maze, visual marks were placed to facilitate the orientation of the animal and food (15 mg tablet) was put in four of the arms. The time each animal took to complete the exercise, and the number of errors, were measured using a camera attached to a computer system. In this sense, Alzheimer animals have values about 50% higher than healthy animals, both by the time it takes to perform the exercise and by the number of errors made (FIG. 4B). […] In this regard, the effectiveness of the compound 183B1, 205A1, 205B1, 226A1, 226 V1 was also tested, showing improvements in animals with Alzheimer's disease (times of 98, 92, 93, 86 and 89 seconds, respectively). On the other hand, it is also interesting that these same compounds (183B1, 205A1, 205B1, 226A1, 226B1 and 226V1) also produced reductions in the times taken to complete the experiment in control animals (B6 healthy mice) of 8s, 11s, 12s, 18s, 16s and 14s, respectively. Therefore, it may be concluded that these compounds have significant activity against neurodegeneration and in neuroregeneration.

TNF-α = assay: Production of TNF-α in serum of LPS-injected C57BL6/J mice; format: in vivo; conditions: LPS 20 μg i.p. (100%), 200 mg/kg p.o.
Procedure, shortened: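 C57BL6/J mice given intraperitoneal LPS (20 μg) to induce inflammation, then dosed orally with derivatives at 200 mg/kg. Serum TNF-α measured.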

3T3 cells = assay: Percentage of total PUFAs in membranes of 3T3 cells treated with fatty acids (gas chromatography); format: cell-based; conditions: 100 μM, 48 hours, mean ± SEM of four measures, control 32.4 ± 2.1
Source text: To perform these experiments, membranes were extracted and total fatty acids were obtained by hydrolysis in basic medium. Methanolic bases of these fatty acids were quantified by gas chromatography. The data shown are averages of four independent measures of PUFA's mass divided by the total fatty acids and expressed as a percentage. It is also shown is standard error of the mean.
The control corresponds to a culture without the presence of added natural or synthetic fatty acids. Cells in their natural form present PUFAs in their membranes, but the presence in the medium of the D-PUFA molecules of the invention increases these levels of PUFAs in the cell membrane.

[1] = test system: heterotrimeric Gi1 protein; assay: Binding of heterotrimeric Gi1 protein to model membranes (centrifugation, immunoblotting); conditions: phosphatidylcholine:phosphatidylethanolamine (6:4) 2 mM phospholipid, 0.1 μM D-PUFA; control 100 ± 5; in % (unit assumed)
Source text: The net result is a regulation of cell signalling leading to the reversal of various pathological processes, as shown later. […] The Control is a sample of model membranes in the absence of fatty acids.

HepG2 cells = assay: Liver cancer (HepG2 cells); format: cell-based; conditions: 72 hours
Protocol: These charts show the antitumor efficacy of the compounds of this invention against the growth of breast cancer cells, brain (glioma), and lung cancer. […] The other experimental conditions are identical to those described in the preceding paragraph.
Overall, it may be seen that the series of compounds A and B are the best, so the effectiveness of these series against the development of leukaemia and liver cancer (Tables 9 and 10) was tested.

Row | Compound | Reduction in the time taken to complete the experiment (B6 healthy mice) [s] | Production of TNF-α in serum (TNF-α) [%] | Percentage of total PUFA (3T3 cells) [%] | G protein binding [1] | IC50 (HepG2 cells; Homo sapiens, HepG2) [µM] | IC50 (HepG2 cells) [µM]
1 | CCC=CCC=CCC=CCCCCCCC(O)C(=O)[O-].[Na+] (centres unmarked) [183B1] | 8 | 81 |  |  |  | 
2 | CCC=CCC=CCC=CCC=CCC=CCCC(O)C(=O)O (centres unmarked) [205A1, 2-hydroxy-5,8,11,14,17-eicosapentaenoic acid] | 11 | 56 | 46.7 ± 3.4 | 406 ± 14 | 401 | 
3 | CCC=CCC=CCC=CCC=CCC=CCCC(O)C(=O)[O-].[Na+] (centres unmarked) [205B1] | 12 | 69 |  |  |  | 
4 | CCC=CCC=CCC=CCC=CCC=CCC=CCC(O)C(=O)O (centres unmarked) [226A1] | 18 | 73 | 48.9 ± 3.7 | 422 ± 26 |  | 164
